According to ChEMBL document CHEMBL1201862, “PubChem BioAssay data set” (2004):
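Compound exposure: 48 hours, 5 concentrations, 96-well plates. GI50 is the concentration that inhibits growth by half.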 Calls of active or inactive are those of the source. No stated cut-off is given here; in the data, active = GI50 up to about 1.1 µM and inactive = higher. Residues, ends and D or L forms follow the SMILES beside them. *: point of attachment. Ethyl(2-NMe3+) = C[N+](C)(C)CC*; Boc = CC(C)(C)OC(=O)*

How the values were obtained:
Assay in all cases: DTP human tumour cell line panel, 48 h
[1] = test system: SNB-75
[2] = test system: SK-MEL-5
[3] = test system: U-251
[4] = test system: MDA-N
[5] = test system: RXF 393
[6] = test system: OVCAR-4
[7] = test system: NCI-H23
[8] = test system: KM12
[9] = test system: A549
[10] = test system: CAKI-1
[11] = test system: A498
[12] = test system: 786-0
[13] = test system: DU-145
[14] = test system: RPMI-8226
[15] = test system: TK-10
[16] = test system: HT-29
[17] = test system: SK-OV-3
[18] = test system: HCT-116
[19] = test system: UACC-62
[20] = test system: SF-539
[21] = test system: MDA-MB-231
[22] = test system: ACHN
[23] = test system: MCF7
[24] = test system: IGROV-1
[25] = test system: EKVX
[26] = test system: HCT-15
[27] = test system: NCI/ADR-RES
[28] = test system: SNB-19
[29] = test system: OVCAR-3
[30] = test system: UACC-257
[31] = test system: MDA-MB-435
[32] = test system: MOLT-4
[33] = test system: NCI-H522
[34] = test system: NCI-H460
[35] = test system: Malme-3M
[36] = test system: K562
[37] = test system: HOP-92
[38] = test system: SK-MEL-2
[39] = test system: BT-549
[40] = test system: CCRF-CEM
[41] = test system: OVCAR-8
[42] = test system: PC-3
[43] = test system: HOP-62
[44] = test system: SN12C
[45] = test system: LOX IMVI
[46] = test system: SF-295
[47] = test system: NCI-H226
[48] = test system: SW-620
[49] = test system: M14
[50] = test system: T47D
[51] = test system: COLO 205
[52] = test system: HCC 2998
[53] = test system: SK-MEL-28
[54] = test system: SF-268
[55] = test system: OVCAR-5
[56] = test system: Hs-578T
[57] = test system: UO-31
[58] = test system: HL-60
[59] = test system: SR

SMILES: COc1cc2cc(C(=O)N3CC(CCl)c4c3cc(N)c3ccccc43)[nH]c2cc1OCCN(C)C (stereo not drawn)
- GI50 [1]: < 0.005 µM (active)
- GI50 [2]: < 0.005 µM (active)
- GI50 [3]: < 0.005 µM (active)
- GI50 [4]: < 0.005 µM (active)
- GI50 [5]: < 0.005 µM (active)
- GI50 [6]: 0.00628 µM (active)
- GI50 [7]: < 0.005 µM (active)
- GI50 [8]: < 0.005 µM (active)
- GI50 [9]: < 0.005 µM (active)
- GI50 [10]: < 0.005 µM (active)
- GI50 [11]: 0.00546 µM (active)
- GI50 [12]: < 0.005 µM (active)
- GI50 [13]: < 0.005 µM (active)
- GI50 [14]: < 0.005 µM (active)
- GI50 [15]: 0.00522 µM (active)
- GI50 [16]: 0.5 µM (active)
- GI50 [17]: 0.0105 µM (active)
- GI50 [18]: < 0.005 µM (active)
- GI50 [19]: < 0.005 µM (active)
- GI50 [20]: < 0.005 µM (active)
- GI50 [21]: < 0.005 µM (active)
- GI50 [22]: < 0.005 µM (active)
- GI50 [23]: < 0.005 µM (active)
- GI50 [24]: < 0.005 µM (active)
- GI50 [25]: 0.00809 µM (active)
- GI50 [26]: 0.00553 µM
- GI50 [27]: 0.00931 µM (active)
- GI50 [28]: 0.00644 µM (active)
- GI50 [29]: 0.00734 µM (active)
- GI50 [30]: 0.00993 µM (active)
- GI50 [31]: < 0.005 µM (active)
- GI50 [32]: 0.0561 µM (active)
- GI50 [33]: < 0.005 µM (active)
- GI50 [34]: < 0.005 µM (active)
- GI50 [35]: 0.0053 µM (active)
- GI50 [36]: < 0.005 µM (active)
- GI50 [37]: < 0.005 µM (active)
- GI50 [38]: < 0.005 µM (active)
- GI50 [39]: 0.051 µM (active)
- GI50 [40]: < 0.005 µM (active)
- GI50 [41]: < 0.005 µM (active)
- GI50 [42]: < 0.005 µM (active)
- GI50 [43]: < 0.005 µM (active)
- GI50 [44]: 0.00597 µM (active)
- GI50 [45]: < 0.005 µM (active)
- GI50 [46]: < 0.005 µM (active)
- GI50 [47]: 0.00528 µM (active)
- GI50 [48]: < 0.005 µM (active)
- GI50 [49]: < 0.005 µM (active)
- GI50 [50]: < 0.005 µM (active)
- GI50 [51]: < 0.005 µM (active)
- GI50 [52]: < 0.005 µM (active)
- GI50 [53]: 0.00705 µM (active)
- GI50 [54]: < 0.005 µM (active)
- GI50 [55]: 0.00713 µM (active)
- GI50 [56]: 0.027 µM (active)
- GI50 [57]: < 0.005 µM (active)

SMILES: CCC(CON(C)c1ccccc1)(SC)SC
- GI50 [1]: > 100 µM (inactive)
- GI50 [2]: > 100 µM (inactive)
- GI50 [58]: 99.1 µM (inactive)
- GI50 [3]: > 100 µM (inactive)
- GI50 [4]: > 100 µM (inactive)
- GI50 [6]: > 100 µM (inactive)
- GI50 [59]: > 100 µM (inactive)
- GI50 [7]: > 100 µM (inactive)
- GI50 [8]: > 100 µM (inactive)
- GI50 [9]: > 100 µM (inactive)
- GI50 [10]: > 100 µM (inactive)
- GI50 [12]: > 100 µM (inactive)
- GI50 [13]: 82.6 µM (inactive)
- GI50 [14]: > 100 µM (inactive)
- GI50 [15]: > 100 µM (inactive)
- GI50 [16]: > 100 µM (inactive)
- GI50 [17]: > 100 µM (inactive)
- GI50 [18]: > 100 µM (inactive)
- GI50 [19]: > 100 µM (inactive)
- GI50 [20]: > 100 µM (inactive)
- GI50 [21]: > 100 µM (inactive)
- GI50 [22]: > 100 µM (inactive)
- GI50 [23]: > 100 µM (inactive)
- GI50 [24]: > 100 µM (inactive)
- GI50 [25]: > 100 µM (inactive)
- GI50 [26]: > 100 µM
- GI50 [27]: > 100 µM (inactive)
- GI50 [28]: > 100 µM (inactive)
- GI50 [30]: > 100 µM (inactive)
- GI50 [31]: > 100 µM (inactive)
- GI50 [32]: > 100 µM (inactive)
- GI50 [33]: > 100 µM (inactive)
- GI50 [34]: > 100 µM (inactive)
- GI50 [35]: 13.5 µM (inactive)
- GI50 [37]: > 100 µM (inactive)
- GI50 [38]: 28.7 µM (inactive)
- GI50 [39]: > 100 µM (inactive)
- GI50 [40]: > 100 µM (inactive)
- GI50 [41]: > 100 µM (inactive)
- GI50 [42]: > 100 µM (inactive)
- GI50 [43]: > 100 µM (inactive)
- GI50 [44]: > 100 µM (inactive)
- GI50 [45]: > 100 µM (inactive)
- GI50 [46]: > 100 µM (inactive)
- GI50 [47]: > 100 µM (inactive)
- GI50 [48]: > 100 µM (inactive)
- GI50 [49]: > 100 µM (inactive)
- GI50 [50]: 13.3 µM (inactive)
- GI50 [51]: > 100 µM (inactive)
- GI50 [52]: > 100 µM (inactive)
- GI50 [53]: > 100 µM (inactive)
- GI50 [54]: > 100 µM (inactive)
- GI50 [55]: > 100 µM (inactive)
- GI50 [56]: 80.2 µM (inactive)
- GI50 [57]: 95.1 µM (inactive)

SMILES: CC(NC(=O)C(Cc1ccc(OCC[N+](C)(C)C)cc1)NC(=O)OC(C)(C)C)C(=O)NC(Cc1ccccc1)C(=O)NCC(N)=O (stereo not drawn) (Boc-Y(Ethyl(2-NMe3+))AFG-NH2; configuration not given here)
- GI50 [1]: 13.6 µM (inactive)
- GI50 [2]: > 100 µM (inactive)
- GI50 [58]: > 100 µM (inactive)
- GI50 [3]: 3.24 µM (inactive)
- GI50 [4]: > 100 µM (inactive)
- GI50 [5]: 11.7 µM (inactive)
- GI50 [6]: 38.1 µM (inactive)
- GI50 [7]: 15.5 µM (inactive)
- GI50 [8]: > 100 µM (inactive)
- GI50 [9]: 36.8 µM (inactive)
- GI50 [10]: 87.1 µM (inactive)
- GI50 [11]: 13.4 µM (inactive)
- GI50 [12]: 10.4 µM (inactive)
- GI50 [13]: 36.1 µM (inactive)
- GI50 [14]: > 100 µM (inactive)
- GI50 [15]: 11.8 µM (inactive)
- GI50 [16]: > 100 µM (inactive)
- GI50 [17]: 10 µM (inactive)
- GI50 [18]: 34.9 µM (inactive)
- GI50 [19]: 25.9 µM (inactive)
- GI50 [20]: 11.4 µM (inactive)
- GI50 [21]: 2.75 µM (inactive)
- GI50 [22]: 22.1 µM (inactive)
- GI50 [23]: > 100 µM (inactive)
- GI50 [24]: 20.1 µM (inactive)
- GI50 [26]: > 100 µM
- GI50 [27]: 36.9 µM (inactive)
- GI50 [28]: 13.2 µM (inactive)
- GI50 [29]: 18.2 µM (inactive)
- GI50 [30]: 45.2 µM (inactive)
- GI50 [31]: > 100 µM (inactive)
- GI50 [32]: > 100 µM (inactive)
- GI50 [33]: 36.9 µM (inactive)
- GI50 [34]: 70.5 µM (inactive)
- GI50 [35]: 20.9 µM (inactive)
- GI50 [36]: > 100 µM (inactive)
- GI50 [37]: 15.7 µM (inactive)
- GI50 [38]: 11.9 µM (inactive)
- GI50 [39]: 20.2 µM (inactive)
- GI50 [41]: 12 µM (inactive)
- GI50 [42]: > 100 µM (inactive)
- GI50 [43]: 2.44 µM (inactive)
- GI50 [44]: 37.2 µM (inactive)
- GI50 [45]: 30.4 µM (inactive)
- GI50 [46]: 3.8 µM (inactive)
- GI50 [47]: 22.7 µM (inactive)
- GI50 [48]: > 100 µM (inactive)
- GI50 [49]: 65.9 µM (inactive)
- GI50 [50]: 43.8 µM (inactive)
- GI50 [51]: 75.7 µM (inactive)
- GI50 [52]: 16.5 µM (inactive)
- GI50 [53]: > 100 µM (inactive)
- GI50 [54]: 10.1 µM (inactive)
- GI50 [55]: 25.1 µM (inactive)
- GI50 [56]: 22.4 µM (inactive)
- GI50 [57]: 65.3 µM (inactive)
